Test results as given in patent US9095535B2, “GABA release-regulating agent in cerebellum” (KOREA INSTITUTE OF SCIENCE AND TECHNOLOGY, priority 2009, dated 2015).
Counter-ions that a name gives are not always drawn.

Tests used:
[1] = tested on: cell line derived from type-2 astrocytes; settings: cited from earlier work
[2] = target: T1, hBest1 (Homo sapiens, UniProt O76090); settings: cited from earlier work
T1 sequence (O76090 1-585): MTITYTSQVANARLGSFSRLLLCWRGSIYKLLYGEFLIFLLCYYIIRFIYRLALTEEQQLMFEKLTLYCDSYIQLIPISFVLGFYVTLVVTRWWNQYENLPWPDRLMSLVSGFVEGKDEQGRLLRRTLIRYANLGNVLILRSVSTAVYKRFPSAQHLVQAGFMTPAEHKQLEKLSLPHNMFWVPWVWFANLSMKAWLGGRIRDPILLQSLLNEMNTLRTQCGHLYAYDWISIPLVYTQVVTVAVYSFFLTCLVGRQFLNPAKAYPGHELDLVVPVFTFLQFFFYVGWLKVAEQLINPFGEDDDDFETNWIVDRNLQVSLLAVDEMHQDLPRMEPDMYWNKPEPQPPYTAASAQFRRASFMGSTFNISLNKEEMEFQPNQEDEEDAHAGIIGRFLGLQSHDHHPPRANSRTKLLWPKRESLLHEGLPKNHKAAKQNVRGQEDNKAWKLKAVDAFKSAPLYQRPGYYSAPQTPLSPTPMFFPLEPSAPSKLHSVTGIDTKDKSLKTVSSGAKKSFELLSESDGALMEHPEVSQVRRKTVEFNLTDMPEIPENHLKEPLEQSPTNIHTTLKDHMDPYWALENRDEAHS

[3] = tested on: cerebellar granule cells; test: Whole-cell patch clamp of tonic GABA current in cerebellar granule cells; assay type: cell-based, mouse; settings: for block of GABAzine-sensitive current by anion channel blockers: 100 μM Niflumic acid, DIDS concentration not given; for GABAzine-sensitive current after incubation: 150 μM BAPTA-AM (25 min) or 0.5 μM concanamycin A
Description: Brain slices were prepared as described in Rossi et al., 2003. For slice recording, either approximately P28 days old or more than 8 weeks old mice were used. Animals were deeply anesthetized with halothane. After decapitation, the brain was quickly excised from the skull and submerged in ice-cold cutting solution (in mM): 250 Sucrose, 26 NaHCO3, 10 D(+)-Glucose, 4 MgCl2, 3 myo-inositol, 2.5 KCl, 2 Sodium pyruvate, 1.25 NaH2PO4, 0.5 Ascorbic acid 0.1 CaCl2, 1 Kynurenic acid, pH 7.4. All solutions were gas-treated with 95% O2-5% CO2. After trimming both sides of vermis, several parasagittal slices with […] thicknesses containing cerebellar lobes were cut using a microtome (Leica VT 1000) and transferred to extracellular ACSF solution (in mM); 126 NaCl, 24 NaHCO3, 1 NaH2PO4, 2.5 KCl, 2.5 CaCl2, 2 MgCl2, 10 D(+)-Glucose, pH 7.4. Slices were incubated for one hour at least at room temperature.
For recording, slices were transferred to an electrophysiological recording chamber (RC-26G, Warner Instruments) which is continuously superfused with ASCF (artificial cerebrospinal fluid, sigma) solution (flow rate; 2 ml/min) and controlled by flower controller (Synaptosoft) and a vacuum pump (Charles Austen, model Capex 8C). Slice chamber was mounted on the stage of an upright microscope (Olympus, Japan) and viewed with an ×60 water immersion objective with differential interference contrast and infrared optics. Cellular morphologies were visually identified by Imaging Workbench 6.0 (INDEC Systems, Inc), camera controller (Hamamatsu, C4742-95), and light microscope controller (Olympus, TH4-200). Fluorescence images were viewed with mercury lamp (Olympus, U-RFL-T). Whole cell voltage-clamp recording was made from granular cell somata or Bergmann glial cells mostly located in 2-5 cerebellar lobules
Pipette resistance for granule cells was typically 10-12 MΩ and pipette was filled with an internal solution containing (in mM) 135 CsCl, 4 NaCl, 0.5 CaCl2, 10 HEPES, 5 EGTA, 2 Mg-ATP, 0.5 Na2-GTP, 10 QX-314, pH adjusted to 7.2 with CsOH (278-285 mOsmol) was used (Rossi, et al., 2003).
(§1) B6 wildtype, GFAP-GFP and hGFAP-CreERT2 trangenic mice (SPF room, Center for Neural Science, KIST, Seoul, Korea) were anaesthetized by intraperitoneal injection of 2% avertin (20 μl/g, sigma) and placed in a stereotaxic frame (David Kopf instrument). pSicoR-b1shRNA-mCherry or scrambled virus (Macrogen) was stereo-injected into cerebellar cortex at a rate of 0.2 μl/min (total 2 μl) using syringe pump (Harvard apparatus) and 25 μl syringe (Hamilton company). The coordination of injection site was 1.7 mm from the lambda and the depth was 1.5-1.7 mm from the skull.
The glia-specific CreERT activation was initiated by intraperitoneal injection of tamoxifen for 5 days prior to lentivirus injection (FIG. 4a,b). […] Tamoxifen or sunflower oil were injected intraperitoncally once a day for 5 days before lentivirus injection.

[4] = tested on: cerebellar granule cells; test: Clomeleon imaging of [Cl−]i in cerebellar granule cells (tonic GABA release); assay type: cell-based, mouse; settings: bath application of 10 μM
Description: as §1, with “skull. […]” for “skull.”
Clomeleon, based on fluorescence resonance energy transfer (FRET), is a genetically-encoded fluorescent indicator for Cl^− in which chloride-sensitive yellow fluroscent protein fused with chloride-insensitive cyan fluorescent protein via a flexible peptide linker (Kuner and Augustine, 2000). […]
For imaging, two ROIs (Regions of Interest) covering the granule cell layer and the molecular layer were drawn. […] Fluorescence excitation was produced by two consecutive 200 to 500 ms long light pulses at 0.5 Hz and fluorescence emission was alternately collected at each wavelength with a back-illuminated, cooled CCD camera with the on-chip multiplication gain control (Cascade 512B, Photometrics). […]

[5] = target: T2, Best1 channel (Mus musculus, UniProt O88870); assay type: cell-based; settings: NPPB and NFA at 100 μM; inward current in GABAc sensor cell
T2 construct: mBest1 full-length fragment from pGEM-T easy plasmid (6.65 kb, Promega) was subcloned into pcDNA 3.1; expressed in transfected cells; host or cells: HEK293T (ATCC)
T2 sequence (O88870 1-551 R255K): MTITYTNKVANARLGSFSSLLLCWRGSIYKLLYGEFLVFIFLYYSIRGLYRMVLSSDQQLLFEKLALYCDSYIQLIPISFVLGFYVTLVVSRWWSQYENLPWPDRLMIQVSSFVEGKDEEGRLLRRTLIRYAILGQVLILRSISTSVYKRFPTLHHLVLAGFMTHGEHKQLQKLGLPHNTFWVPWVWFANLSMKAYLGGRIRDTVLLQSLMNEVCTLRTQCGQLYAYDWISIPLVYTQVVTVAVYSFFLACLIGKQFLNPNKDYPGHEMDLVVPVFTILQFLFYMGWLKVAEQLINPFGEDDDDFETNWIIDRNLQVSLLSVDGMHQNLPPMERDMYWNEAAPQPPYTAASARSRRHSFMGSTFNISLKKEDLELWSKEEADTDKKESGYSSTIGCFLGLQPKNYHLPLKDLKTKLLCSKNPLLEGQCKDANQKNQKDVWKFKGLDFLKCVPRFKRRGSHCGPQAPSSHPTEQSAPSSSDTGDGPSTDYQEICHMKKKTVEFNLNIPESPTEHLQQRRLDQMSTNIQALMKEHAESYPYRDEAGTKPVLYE
Description: For Best1 channel to mediate release of GABA, it has to permeate GABA upon channel opening. To test for GABA permeability of Best1 channel, a two-cell sniffer patch technique was developed to directly measure GABA release via Best1 channel in sensor HEK293T cells that express GABAc, and via other channels that are expressed in source HEK293T cells (FIG. 1b).
pIRES-Best1-dsRED plasmid (obtained by cloning Best1 using pIRES-dsRED (Invitrogen)) and GABAc with GFP (obtained by cloning GABAc using pcDNA3.1 (Invitrogen)) were transfected into HEK 293T cells (ATCC) using Effectene transfection reagent (Qiagen). […]
GABA release was induced by a break-though of membrane patch that goes into a whole-cell configuration in the source cell and such the released GABA was monitored and detected by a neighboring sensor cell. Full activation of GABA current was obtained by bath application of 100 μM GABA and the percentage of full activation was calculated (FIGS. 1c and 1d).
Permeated GABA is detected in sensor as an inward current (bottom traces). […] The GABA permeability of said mutant was determined by using cells obtained by transfecting said mutant into HEK293t cell (ATCC). […] The GABA permeability of said AN01 was determined by using cells obtained by transfecting said mutant into HEK293t cell (ACTT).

[6] = tested on: GABAc receptors; test: Patch clamp of GABAc expressing HEK293 cells challenged with 100 μM GABA; assay type: cell-based; settings: 100 μM GABA in absence or presence of 100 μM NFA and 100 μM NPPB
Description: FIGS. 7a and 7b show the results when GABAc expressing HEK293 cells were patch clamped and challenged with 100 μM GABA in the absence and presence of 100 μM NFA and 100 μM NPPB; and
In FIGS. 7a and 7b, GABAc expressing HEK293 cells were patch clamped and challenged with 100 μM GABA in the absence or presence of 100 μM NFA and 100 μM NPPB.

## CC(=O)Nc1ccc(C=Cc2ccc(N=C=S)cc2S(=O)(=O)O)c(S(=O)(=O)O)c1 [SITS, 4-acetamido-4′-isothiocyanostilbene-2,2′-disulphonic acid]
[1]
  sensitivity of P2X7-induced [3H]-GABA release to inhibitors: sensitive

## O=S(=O)(O)c1cc(N=C=S)ccc1C=Cc1ccc(N=C=S)cc1S(=O)(=O)O [DIDS, 4,4′-diisothiocyanatostilbene-2,2′-disulfonic acid]
[1]
  sensitivity of P2X7-induced [3H]-GABA release to inhibitors: sensitive
[2]
  block of hBest1 Cl− channel: readily blocked
[3]
  block of GABAzine-sensitive current by anion channel blockers: blocked the GABAzine-sensitive current significantly

## CC/C(=C(\c1ccccc1)c1ccc(OCCN(C)C)cc1)c1ccccc1 [Tamoxifen]
[3]; hGFAP-CreERT2 mice with Tamoxifen and Best1-shRNA lentivirus, naïve 18.95±2.47 pA
  NPPB-sensitive current: 19.27±2.2 pA
[3]; hGFAP-CreERT2 mice, tamoxifen i.p. 5 days, then Best1-shRNA lentivirus (glia-specific rescue)
  GABAzine-sensitive current: 31.31±2.19 pA

## CC(=O)OCOC(=O)CN(CC(=O)OCOC(C)=O)c1ccccc1OCCOc1ccccc1N(CC(=O)OCOC(C)=O)CC(=O)OCOC(C)=O [BAPTA-AM, 1,2-Bis(2-aminophenoxy)ethane-N,N,N′,N′-tetraacetic acid tetrakis(acetoxymethyl ester)]
[3]
  GABAzine-sensitive current after incubation: significantly reduced

## COc1ccc(-c2ccc(=N)n(CCCC(=O)O)n2)cc1 [GABAzine, SR95531 hydrobromide]
[4]
  [Cl−]i in granular cell bodies and parallel fibers: markedly decreased
[3]; naïve mice, holding −60 mV
  GABAzine-sensitive current: 35.68±4.05 pA

## O=C(O)c1cccnc1Nc1cccc(C(F)(F)F)c1 [NFA, Niflumic acid]
[2]
  block of hBest1 Cl− channel: readily blocked
[5]
  GABA release via Best1: completely abolished
[3]
  block of GABAzine-sensitive current by anion channel blockers: blocked the GABAzine-sensitive current significantly
[6]
  GABA response of GABAc expressing HEK293 cells: do not have significant impact

## C/C=C/[C@H]1O[C@@](O)([C@@H](C)[C@H](O)[C@H](C)[C@H]2OC(=O)/C(OC)=C/C(C)=C/[C@@H](C)[C@@H](O)[C@@H](CC)[C@@H](O)[C@H](C)C/C(C)=C/C=C/[C@@H]2OC)C[C@@H](O[C@H]2C[C@@H](O)[C@H](OC(N)=O)[C@@H](C)O2)[C@@H]1C [concanamycin A]
[3]
  GABAzine-sensitive current after incubation: did not have such affect
